Assays:
[1] = tested on: Christensenella sp. MNH04863; assay: Antibiotic susceptibility testing by disk diffusion method; type: cell-based; conditions: for Inhibition Zone Diameter: against Christensenella sp. MNH04863
Text: The disk diffusion method was used to conduct the antibiotic susceptibility testing of Christensenella sp. MNH04863. Christensenella sp.

[2] = tested on: KPC mouse pancreatic cancer cells; assay: Pancreatic cancer mouse homologous tumor model, combination with gemcitabine
[3] = tested on: KPC mouse pancreatic cancer cells; conditions: in vivo

Molecule	Susceptibility of Christensenella sp. MNH04863 to the antibiotic [1]	Inhibition Zone Diameter [1]	further results
CC[C@H]1OC(=O)[C@H](C)[C@@H](O[C@H]2C[C@@](C)(OC)[C@@H](O)[C@H](C)O2)[C@H](C)[C@@H](O[C@@H]2O[C@H](C)C[C@H](N(C)C)[C@H]2O)[C@](C)(O)C[C@@H](C)C(=O)[C@H](C)[C@@H](O)[C@]1(C)O [Erythromycin (E), Erythromycin]	sensitive	16.82 mm	
CO/N=C(\C(=O)N[C@@H]1C(=O)N2C(C(=O)O)=C(CSc3nc(=O)c(=O)[nH]n3C)CS[C@H]12)c1csc(N)n1 [Ceftriaxone (CTR), Ceftriaxone]	sensitive	37.32 mm	
Compound Sulfamethoxazole [Compound Sulfamethoxazole (SXT)]	resistance	0 mm	
Nc1ccn([C@@H]2O[C@H](CO)[C@@H](O)C2(F)F)c(=O)n1 [Gemcitabine]			Average Dissected Tumor Weight ([2]; experimental endpoint): 0.68 g; Experimental Endpoint TGI ([2]; vs control): 40.0%; Number of Euthanized mice ([3]; C57BL/6J): 2; Average Weight Before Dissection [3]: 21.13 g
CCC[C@@H]1C[C@@H](C(=O)N[C@@H]([C@H]2O[C@H](SC)[C@H](O)[C@@H](O)[C@H]2O)[C@@H](C)O)N(C)C1 [Lincomycin (MY), Lincomycin]	sensitive	29.86 mm	
CN(C)[C@@H]1C(O)=C(C(N)=O)C(=O)[C@@]2(O)C(O)=C3C(=O)c4c(O)cccc4[C@@](C)(O)[C@H]3C[C@@H]12 [Tetracycline (TET), Tetracycline]		46.11 mm	
CC1(C)S[C@@H]2[C@H](NC(=O)[C@H](N)c3ccccc3)C(=O)N2[C@H]1C(=O)O [Ampicillin (AMP), Ampicillin]	resistance	0 mm	
Gentamycin [Gentamycin (GEN)]	resistance	0 mm	
Penicillin [Penicillin (PEN)]	sensitive	43.06 mm	
O=C(N[C@H](CO)[C@H](O)c1ccc([N+](=O)[O-])cc1)C(Cl)Cl [Chloramphenicol (C), Chloramphenicol]	sensitive	38.88 mm	
O=C(O)c1cn(C2CC2)c2cc(N3CCNCC3)c(F)cc2c1=O [Ciprofloxacin (CIP), Ciprofloxacin]	resistance	0 mm	

Source: patent US20250387438A1, “USE OF […] SP. OR COMPOSITION COMPRISING SAME IN PREVENTION OR TREATMENT OF TUMORS, AND DRUG COMPRISING SAME” (Moon (Guangzhou) Biotech Co., Ltd., priority 2022, published 2025)
